Experimental data reported in patent US8044206B2, “Nitrogen—containing heterocyclic derivatives having 2,6-disubstituted styryl” (Astellas Pharma Inc., priority 2003, dated 2011).
Structures can show the parent of a compound that is named as a salt.

Key:
sodium channel = experiment: [14C] guanidine uptake induced by veratridine in rat cerebral cortex primary neurons (sodium channel inhibitory action); assay type: cell-based; settings: [14C] guanidine uptake induced by 100 μM veratridine, specific uptake = portion inhibited by 1 mM mexiletine, read-out: Na Channel Inhibition IC50
Method: The [^14C] guanidine uptake experiment was performed by the method of Bonisch et al. (British Journal of Pharmacology 108, 436-442, 1993) with some modifications. The [^14C] guanidine was used as a sodium tracer, and the inhibitory activity on uptake of [^14C] guanidine induced by veratridine as a sodium channel activator into rat cerebral cortex primary neurons was measured.
Pregnant rats (Wistar, female, 19 days of gestation) were anesthetized with ether. The animals were bled to death by giving incision through the carotid artery. The fetuses were taken out of the pregnant rats and after ethanol sterilization, the cerebral cortex was removed from the fetuses. The cerebral cortex was digested with papain and dispersed in culture medium, followed by plating on a poly-L-lysine-coated 96-well white plate at a density of 2.5×10^5 cells/well. Incubation was performed in a CO2 incubator (37° C., 5% CO2) for 2 days.
After each well was washed once with an assay buffer (135 mM choline Cl, 5 mM KCl, 1 mM MgSO4, 5.5 mM glucose, 1 mg/mL BSA, 10 mM Hepes-Tris, pH 7.4), a fresh assay buffer was added to the well, followed by incubation at 25° C. for 10 minutes. Then, a reaction solution (a test compound, [^14C] guanidine and 100 μM, veratridine) was replaced for the buffer, followed by incubation at 25° C. for 15 minutes. The reaction was terminated by washing 3 times with a cold wash buffer (135 mM NaCl, 5 mM KCl, 1 mM MgSO4, 10 mM Hepes-Tris, pH 7.4). To each well, 17 μl of 0.1N NaOH was added. After agitation, 100 μl of scintillator was added to the well and further agitation was continued. The radioactivity was quantified by a liquid scintillation counter. In each experiment, the sodium channel-specific uptake of the whole uptake was designated as portion that was inhibited by 1 mM mexiletine. The action of the test compound on sodium channel is expressed as 50% inhibition concentration (IC50) based on the specific uptake.

[1] = test system: mice with streptozotocin (STZ)-induced diabetic neuropathy; experiment: Analgesic action in mice with streptozotocin (STZ)-induced diabetic neuropathy, tail pinch test; assay type: in vivo; settings: male ICR mice, Day 15 after STZ, oral 30 mg/kg, 45 minutes prior to measurement, latency after minus before administration
Method: Representative compounds of Compound (I) of the present invention were assessed for the analgesic action in mice with streptozotocin (STZ)-induced diabetic neuropathy to confirm the effect on neuropathic pain. The assessment was performed by the method of Kamei et al. (Pharmacology Biochemistry & Behavior 39, 541-544, 1991) with some modifications.
Male ICR mice of 4 weeks old were intraperitoneally injected with 200 mg/kg weight of STZ to prepare mice with diabetic neuropathic pain. The analgesic action was assessed by the tail pinch test. […] On Day 14 following the STZ injection, a pretest was carried out to determine the response latency before the administration of a test compound. Only the animals showing not longer than 3 seconds of the response latency in the pretest were used for the test compound assessment on the following day (Day 15 after STZ injection).
In the test compound assessment, the response latency after the administration of a test compound was measured. The test compound was orally administered at a dose of 30 mg/kg, 45 minutes prior to the response latency measurement
The analgesic action of a test compound is expressed as prolongation of latency (in seconds) calculated by the formula: (response latency after administration of a test compound)−(response latency before administration of a test compound).

[2] = test system: L5/L6 spinal nerve ligation rats; experiment: animal or person; settings: Rattus norvegicus, po, read-out: anti-allodynia ED50
Method: The the assessment was performed by the method of Kim and Chung (Pain 50, 355-363, 1992) with some modifications.
Under pentobarbital anesthesia, male SD rats of 5 or 6 weeks old were given surgery to ligate both the left L5 and L6 lumbar nerves tightly with silk threads. For the assessment of analgesic action, the von Frey hair test was adopted. That is, the animal's hindpaw was picked with hair and the lowest strength of hair for limb withdrawal response was designated as a response threshold (log gram) to mechanical stimulation. […] On the day before the assessment of a test compound, the response threshold before administration of a test compound was measured. The animals were divided into 4 to 5 groups so that differences in the mean values of response thresholds before administration among the groups and variation within groups become small. In the assessment of a test compound, the response threshold after administration of the test compound was measured. The test compound was orally given 30 minutes before measurement of the response threshold. The anti-allodynia action potency of a test compound is expressed as ED50. In the calculation of the ED50, the thresholds of ipsilateral and contralateral paws in the solvent group were designated as 0% and 100%, respectively.

Compound | IC50 (sodium channel) [µM] | Anti-STZ-induced pain after oral administration: Latency prolongation [1] | ED50 [2] [mg/kg]
Cc1cccc(C)c1/C=C/C12CCN(CC1)CC2 [Example 24, 4-[(E)-2-(2,6-dimethylphenyl)vinyl]quinuclidine] | 10 | 2.6 s | –
Cc1cccc(Cl)c1/C=C/C1CCNCC1 [Example 37, 4-[(E)-2-(2-chloro-6-methylphenyl)vinyl]piperidine hydrochloride] | 10 | 1.9 s | –
Cc1cccc(C)c1/C=C\C1CCNCC1 [Example 38, 4-[(Z)-2-(2,6-dimethylphenyl)vinyl]piperidine] | 6 | 3.1 s | –
Cc1cccc(C)c1/C=C/C1CCNCC1 [Example 39, 4-[(E)-2-(2,6-dimethylphenyl)vinyl]piperidine monohydrochloride] | 16 | 2.9 s | –
Cc1cc(N(C)C)cc(C)c1/C=C/C1CCNCC1 [Example 53, N,N,3,5-tetramethyl-4-[(E)-2-piperidin-4-ylvinyl]aniline] | 19 | 4.2 s | –
Cc1cccc(C)c1/C=C/C1CCCCN1 (stereo not drawn) [Example 62, 2-[(E)-2-(2,6-dimethylphenyl)vinyl]piperidine monohydrochloride] | 9.2 | 2.3 s | –
Cc1cccc(C)c1/C=C/C1CCCNCC1 (stereo not drawn) [Example 63, 4-[(E)-2-(2,6-dimethylphenyl)vinyl]azepane] | 10 | 3.3 s | –
Cc1cccc(C)c1/C=C/CC1CCNCC1 [Example 65, 4-[(2E)-3-(2,6-dimethylphenyl)prop-2-en-1-yl]piperidine] | 11 | 2.3 s | –
Cc1cccc(C)c1/C=C/C1CCCN(C)C1 (stereo not drawn) [Example 71, 3-[(E)-2-(2,6-dimethylphenyl)vinyl]-1-methylpiperidine] | 7.7 | 2.3 s | –
Cc1cccc(C)c1/C=C/C1CCN(CCN(C)C)CC1 [Example 74, (2-{4-[(E)-2-(2,6-dimethylphenyl)vinyl]piperidin-1-yl}ethyl)dimethylamine] | 7.2 | 1.8 s | –
Cc1cccc(C)c1/C=C/C1CCN(C(=O)CN2CCCOCC2)CC1 [Example 189, 4-(2-{4-[(E)-2-(2,6-dimethylphenyl)vinyl]piperidin-1-yl}-2-oxoethyl)-1,4-oxazepane] | – | 2.4 s | –
Cc1cccc(C)c1/C=C/C1CCN(C(=O)CN2CCC(N)CC2)CC1 [Example 203, 1-(2-{4-[(E)-2-(2,6-dimethylphenyl)vinyl]piperidin-1-yl}-2-oxoethyl)piperidine-4-amine] | – | 1.7 s | –
Cc1cccc(C)c1/C=C/C1CCN(C(=O)CN2CCNCC2)CC1 [Example 204, 1-(2-{4-[(E)-2-(2,6-dimethylphenyl)vinyl]piperidin-1-yl}-2-oxoethyl)piperazine] | – | 2.4 s | –
Cc1cccc(C)c1/C=C/C1CCN(C(=O)CN2C[C@H]3C[C@@H]2CN3)CC1 [Example 205, (1R,4R)-2-(2-{4-[(E)-2-(2,6-dimethylphenyl)vinyl]piperidin-1-yl}-2-oxoethyl)-2,5-diazabicyclo[2.2.1]heptane] | – | 1.6 s | –
Cc1cccc(C)c1OCC(C)N (stereo not drawn) [Mexiletine, reference compound] | 70 | about 3 seconds | ~70
